Assay results published in patent US8143293B2, “Kinase inhibitors useful for the treatment of myleoprolific diseases and other proliferative diseases” (Deciphera Pharmaceuticals, LLC, priority 2007, dated 2012).
Where a chain is given by its changes, count along the chain named.

Assays:
[1] = target: T1, Abl kinase (SEQ ID NO: 1) (Homo sapiens, UniProt P00519); assay: Abl kinase (SEQ ID NO:1) assay, pyruvate kinase/lactate dehydrogenase coupled; details: 2 h preincubation, ATP 500 μM; read-out: Biochemical IC50, Abl Enzyme Assay
T1 construct: purchased deCode Genetics
T1 sequence (P00519 with tags, fused parts or gaps): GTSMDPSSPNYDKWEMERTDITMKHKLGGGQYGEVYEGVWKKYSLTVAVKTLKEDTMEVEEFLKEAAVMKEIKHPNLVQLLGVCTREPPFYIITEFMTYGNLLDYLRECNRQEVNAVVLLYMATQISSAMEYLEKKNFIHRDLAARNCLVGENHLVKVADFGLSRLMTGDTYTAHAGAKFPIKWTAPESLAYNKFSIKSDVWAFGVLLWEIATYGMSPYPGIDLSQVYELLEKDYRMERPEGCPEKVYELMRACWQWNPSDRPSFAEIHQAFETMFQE
Experimental: Abl Kinase (SEQ ID NO:1) Assay
Activity of Abl kinase (SEQ ID NO: 1) was determined by following the production of ADP from the kinase reaction through coupling with the pyruvate kinase/lactate dehydrogenase system (e.g., Schindler, et al. Science (2000) 289, 1938-1942). In this assay, the oxidation of NADH (thus the decrease at A340 nm) was continuously monitored spectrophometrically. The reaction mixture (100 μl) contained Abl kinase (1 nM. Abl from deCode Genetics), peptide substrate (EAIYAAPFAKKK, 0.2 mM), MgCl2 (10 mM), pyruvate kinase (4 units), lactate dehydrogenase (0.7 units), phosphoenol pyruvate (1 mM), and NADH (0.28 mM) in 90 mM Tris buffer containing 0.2% octyl-glucoside and 3.5% DMSO, pH 7.5. Test compounds were incubated with Abl (SEQ ID NO:1) and other reaction reagents at 30° C. for 2 h before ATP (500 μM) was added to start the reaction. The absorption at 340 nm was monitored continuously for 2 hours at 30° C. on Polarstar Optima plate reader (BMG). The reaction rate was calculated using the 1.0 to 2.0 h time frame. Percent inhibition was obtained by comparison of reaction rate with that of a control (i.e. with no test compound). IC50 values were calculated from a series of percent inhibition values determined at a range of inhibitor concentrations using software routines as implemented in the GraphPad Prism software package.

[2] = target: T2, T315I Abl kinase (SEQ ID NO:2) (Homo sapiens, UniProt P00519, T315I); assay: T315I Abl kinase (SEQ ID NO:2) assay, pyruvate kinase/lactate dehydrogenase coupled; details: 1 h preincubation, ATP 500 μM; read-out: Biochemical IC50, Abl T315I Enzyme Assay
T2 construct: purchased deCode Genetics
T2 sequence (P00519 with tags, fused parts or gaps T315I): T1 sequence (P00519 with tags, fused parts or gaps) with T94I
Experimental: Abl Kinase (SEQ ID NO:2) Assay
Activity of T315I Abl kinase (SEQ ID NO:2) was determined by following the production of ADP from the kinase reaction through coupling with the pyruvate kinase/lactate dehydrogenase system (e.g., Schindler, et al. Science (2000) 289, 1938-1942). In this assay, the oxidation of NADH (thus the decrease at A340 nm) was continuously monitored spectrophometrically. The reaction mixture (100 μl) contained Abl kinase (4.4 nM, […] Abl from deCode Genetics), peptide substrate (EAIYAAPFAKKK, 0.2 mM), MgCl2 (10 mM), pyruvate kinase (4 units), lactate dehydrogenase (0.7 units), phosphoenol pyruvate (1 mM), and NADH (0.28 mM) in 90 mM Tris buffer containing 0.2% octyl-glucoside and 1% DMSO, pH 7.5. Test compounds were incubated with T315I Abl (SEQ ID NO:2) and other reaction reagents at 30° C. for 1 h before ATP (500 μM) was added to start the reaction. The absorption at 340 nm was monitored continuously for 2 hours at 30° C. on Polarstar Optima plate reader (BMG). The reaction rate was calculated using the 1.0 to 2.0 h time frame. Percent inhibition was obtained by comparison of reaction rate with that of a control (i.e. with no test compound). IC50 values were calculated from a series of percent inhibition values determined at a range of inhibitor concentrations using software routines as implemented in the GraphPad Prism software package.

[3] = target: T3, C-Met kinase (SEQ ID NO:10) (Homo sapiens, UniProt P08581); assay: C-Met kinase (SEQ ID NO:10) assay, pyruvate kinase/lactate dehydrogenase coupled; details: 0.5 h preincubation, ATP 100 μM; read-out: Biochemical IC50, c-Met Enzyme Assay
T3 construct: 956-1390, from Invitrogen, catalogue #PV3143; His6 (N-terminal leader MSYYHHHHHH... with TEV and thrombin sites) (N); purchased Invitrogen PV3143
T3 sequence (P08581 with tags, fused parts or gaps): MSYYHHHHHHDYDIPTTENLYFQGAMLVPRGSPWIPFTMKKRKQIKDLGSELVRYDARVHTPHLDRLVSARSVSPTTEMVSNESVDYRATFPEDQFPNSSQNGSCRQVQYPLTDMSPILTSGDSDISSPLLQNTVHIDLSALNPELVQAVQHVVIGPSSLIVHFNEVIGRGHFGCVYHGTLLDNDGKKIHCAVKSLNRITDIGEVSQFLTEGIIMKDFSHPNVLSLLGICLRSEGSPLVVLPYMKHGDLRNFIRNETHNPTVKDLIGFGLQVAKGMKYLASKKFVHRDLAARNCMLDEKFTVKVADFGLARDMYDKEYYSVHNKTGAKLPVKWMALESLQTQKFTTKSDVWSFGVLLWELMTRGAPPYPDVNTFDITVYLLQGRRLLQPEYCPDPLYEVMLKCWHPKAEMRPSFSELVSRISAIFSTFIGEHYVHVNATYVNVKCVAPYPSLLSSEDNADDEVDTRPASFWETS
Experimental: C-Met Kinase (SEQ ID NO:10) Assay
Activity of C-Met kinase (SEQ ID NO:10) was determined by following the production of ADP from the kinase reaction through coupling with the pyruvate kinase/lactate dehydrogenase system (e.g., Schindler, et al. Science (2000) 289, 1938-1942). In this assay, the oxidation of NADH (thus the decrease at A340 nm) was continuously monitored spectrophometrically. The reaction mixture (100 μl) contained C-Met (c-Met residues; 956-1390, from Invitrogen, catalogue #PV3143, […]), polyE4Y (1 mg/ml), MgCl2 (10 mM), pyruvate kinase (4 units), lactate dehydrogenase (0.7 units), phosphoenol pyruvate (1 mM), and NADH (0.28 mM) in 90 mM Tris buffer containing 0.25 mM DTT, 0.2% octyl-glucoside and 1% DMSO, pH 7.5. Test compounds were incubated with C-Met (SEQ ID NO:10) and other reaction reagents at 22° C. for 0.5 h before ATP (100 μM) was added to start the reaction. The absorption at 340 nm was monitored continuously for 2 hours at 30° C. on Polarstar Optima plate reader (BMG). The reaction rate was calculated using the 1.0 to 2.0 h time frame. Percent inhibition was obtained by comparison of reaction rate with that of a control (i.e. with no test compound). IC50 values were calculated from a series of percent inhibition values determined at a range of inhibitor concentrations using software routines as implemented in the GraphPad Prism software package.

[4] = target: T4, BaF3 cells transfected with wild type p210 BCR-Abl (Homo sapiens, UniProt P00519); assay: Ba/F3 p210 whole cell proliferation assay; format: cell-based; details: 72 hours, Cell Titer Blue; read-out: Whole Cell Antiproliferation IC50, Ba/F3 p210 whole cell proliferation assay
T4 construct: fused on or other part: P11274 (Breakpoint cluster region protein)
Experimental: (§1) BaF3 cells (parental or transfected with the following: wild type p210 BCR-Abl and T315I p210 BCR-Abl was obtained from Professor Richard Van Etten (New England Medical Center, Boston, Mass.). Briefly, cells were grown in RPMI 1640 supplemented with 10% characterized fetal bovine serum (HyClone, Logan, Utah) at 37 degrees Celsius, 5% CO2, 95% humidity. Cells were allowed to expand until reaching 80% saturation at which point they were subcultured or harvested for assay use.
(§2) A serial dilution of test compound was dispensed into a 96 well black clear bottom plate (Corning, Corning, N.Y.). For each cell line, three thousand cells were added per well in complete growth medium. Plates were incubated for 72 hours at 37 degrees Celsius, 5% CO2, 95% humidity. At the end of the incubation period Cell Titer Blue (Promega, Madison, Wis.) was added to each well and an additional 4.5 hour incubation at 37 degrees Celsius, 5% CO2, 95% humidity was performed. Plates were then read on a BMG Fluostar Optima (BMG, Durham, N.C.) using an excitation of 544 nm and an emission of 612 nm. Data was analyzed using Prism software (Graphpad, San Diego, Calif.) to calculate IC50's.

[5] = target: T5, BaF3 cells transfected with T315I p210 BCR-Abl (Homo sapiens, UniProt P00519, T315I, cells depend on it); assay: Ba/F3 p210 T315I whole cell proliferation assay; format: cell-based; details: 72 hours, Cell Titer Blue; read-out: Whole Cell Antiproliferation IC50, Ba/F3 p210 T315I whole cell proliferation assay
T5 construct: fused on or other part: P11274 (Breakpoint cluster region protein)
Experimental: as §1, §2

Row | IC50 [1] | IC50 [2] | IC50 [3] | GI50 [4] | GI50 [5] | Compound
1 | < 100 nM | < 100 nM | < 1000 nM | < 100 nM | < 100 nM | Cc1c(Oc2ccnc(-c3cnn(C)c3)c2)ccc(NC(=O)Nc2cnn(C(C)(C)C)c2)c1F [Example 17, 1-(1-tert-butyl-1H-pyrazol-4-yl)-3-(2-fluoro-3-methyl-4-(2-(1-methyl-1H-pyrazol-4-yl)pyridin-4-yloxy)phenyl)urea]
2 | < 100 nM | < 100 nM | < 1000 nM | < 100 nM | < 100 nM | Cn1cc(-c2cc(Oc3ccc(NC(=O)Nc4cc(C(C)(C)C)on4)c(F)c3)ccn2)cn1 [Example 4, 1-(5-t-butylisoxazol-3-yl)-3-(2-fluoro-4-(2-(1-methyl-1H-pyrazol-4-yl)pyridin-4-yloxy)phenyl)urea]
3 | < 100 nM | < 10000 nM | < 1000 nM | < 100 nM | < 100 nM | 1-(3-cyclopentylisoxazol-5-yl)-3-(2-fluoro-4-(2-(1-methyl-1H-pyrazol-4-yl)pyridin-4-yloxy)phenyl)urea [Example 13]
4 | < 100 nM | < 100 nM | < 10000 nM | < 100 nM | < 1000 nM | Cn1cc(-c2cc(Oc3ccc(NC(=O)Nc4cc(C(F)(F)F)no4)c(F)c3)ccn2)cn1 [Example 7, 1-(2-fluoro-4-(2-(1-methyl-1H-pyrazol-4-yl)pyridin-4-yloxy)phenyl)-3-(3-(trifluoromethyl)isoxazol-5-yl)urea]
5 | < 1000 nM | < 1000 nM | < 10000 nM | < 100 nM | < 10000 nM | Cc1c(NC(=O)Nc2ccc(Oc3ccnc(-c4cnn(C)c4)c3)cc2F)cnn1C(C)C [Example 19, 1-(2-fluoro-4-(2-(1-methyl-1H-pyrazol-4-yl)pyridin-4-yloxy)phenyl)-3-(1-isopropyl-5-methyl-1H-pyrazol-4-yl)urea]
6 | < 100 nM | < 100 nM | < 10000 nM | < 100 nM | < 1000 nM | Cn1cc(-c2cc(Oc3ccc(NC(=O)Nc4ccn(C(C)(C)C)c4)c(F)c3)ccn2)cn1 [Example 30, 1-(1-tert-butyl-1H-pyrrol-3-yl)-3-(2-fluoro-4-(2-(1-methyl-1H-pyrazol-4-yl)pyridin-4-yloxy)phenyl)urea]
7 | < 100 nM | < 100 nM | < 10000 nM | < 100 nM | < 1000 nM | Cc1nn(C(C)C)cc1NC(=O)Nc1ccc(Oc2ccnc(-c3cnn(C)c3)c2)cc1F [Example 20, 1-(2-fluoro-4-(2-(1-methyl-1H-pyrazol-4-yl)pyridin-4-yloxy)phenyl)-3-(1-isopropyl-3-methyl-1H-pyrazol-4-yl)urea]
8 | < 100 nM | < 1000 nM | < 10000 nM | < 100 nM | < 1000 nM | Cn1cc(-c2cc(Oc3ccc(NC(=O)Nc4cc(C(F)(F)F)nn4C)c(F)c3)ccn2)cn1 [Example 16, 1-(2-fluoro-4-(2-(1-methyl-1H-pyrazol-4-yl)pyridin-4-yloxy)phenyl)-3-(1-methyl-3-(trifluoromethyl)-1H-pyrazol-5-yl)urea]

Row | Compound | IC50 [1] | IC50 [2] | IC50 [3] | GI50 [4] | GI50 [5]
9 | tert-butyl 4-(2-tert-butyl-5-(3-(2-fluoro-4-(2-(1-methyl-1H-pyrazol-4-yl)pyridin-4-yloxy)phenyl)ureido)pyrimidin-4-yl)piperazine-1-carboxylate [Example 40] | < 100 nM | < 1000 nM | < 100000 nM | < 1000 nM | < 1000 nM
